Experimental data: patent US6737383B1, “Herbicidal oxadiazolidines” (priority 1999, dated 2004)

Columns and labels:
wild oat = assay: Test B pre/postemergence wild oat; format: in vivo, Avena fatua
How it was run: (§1)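 Herbicidal effect was estimated by eye on a ten-point control scale after plants spent twelve to sixteen days in a greenhouse following soil or foliar treatment. Foliar sprays targeted plants at one to four leaves; all doses were formulated in a non-phytotoxic solvent with surfactant.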

surinam grass = assay: Test B pre/postemergence surinam grass; format: in vivo, Brachiaria decumbens
How it was run: as §1

duck salad = assay: Test B flood test duck salad; format: in vivo, Heteranthera limosa
How it was run: (§2)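 Flood test on plants grown to the 2-leaf stage; treated plants kept in greenhouse twelve to sixteen days, then visually rated against controls on a 0 (no effect) to 10 (complete control) scale.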

purple nutsedge = assay: Test B pre/postemergence purple nutsedge; format: in vivo, Cyperus rotundus
How it was run: as §1

smallflower flatsedge = assay: Test B flood test smallflower flatsedge; format: in vivo, Cyperus difformis
How it was run: as §2

soybean = assay: Test B pre/postemergence soybean; format: in vivo, Glycine max
How it was run: as §1

sugar beet = assay: Test B pre/postemergence sugar beet; format: in vivo, Beta vulgaris
How it was run: as §1

rape = assay: Test B pre/postemergence rape; format: in vivo, Brassica napus
How it was run: as §1

bedstraw = assay: Test B pre/postemergence bedstraw; format: in vivo, Galium aparine
How it was run: as §1

giant foxtail = assay: Test B pre/postemergence giant foxtail; format: in vivo, Setaria faberii
How it was run: as §1

pigweed = assay: Test B pre/postemergence pigweed; format: in vivo, Amaranthus retroflexus
How it was run: as §1

rice = assay: Test B flood test rice; format: in vivo, Oryza sativa
How it was run: as §2

wheat = assay: Test B pre/postemergence wheat; format: in vivo, Triticum aestivum
How it was run: as §1

cocklebur = assay: Test B pre/postemergence cocklebur; format: in vivo, Xanthium strumarium
How it was run: as §1

velvetleaf = assay: Test B pre/postemergence velvetleaf; format: in vivo, Abutilon theophrasti
How it was run: as §1

corn = assay: Test B pre/postemergence corn; format: in vivo, Zea mays
How it was run: as §1

[1] = Postemergence, Rate 62 g/ha, scale 0 to 10, 0 is no effect, 10 is complete control
[2] = Postemergence, Rate 250 g/ha, scale 0 to 10, 0 no effect, 10 complete control
[3] = Preemergence, Rate 125 g/ha, scale 0 to 10 (0 no effect, 10 complete control)
[4] = Preemergence, Rate 250 g/ha, scale of 0 to 10 where 0 is no effect and 10 is complete control
[5] = Preemergence, Rate 500 g/ha, scale 0 (no effect) to 10 (complete control)
[6] = Rate 125 g/ha, Postemergence, scale 0 to 10, 0 no effect, 10 complete control
[7] = Preemergence, Rate 62 g/ha, scale 0 to 10, 0 is no effect, 10 is complete control
[8] = Rate 500 g/ha, Postemergence, 0 to 10 scale (0 no effect, 10 complete control)
[9] = Rate 125 g/ha, Postemergence section (flood test species), scale 0 to 10, 0 no effect, 10 complete control
[10] = Rate 500 g/ha, Postemergence section of Table B, 0 to 10 scale (0 no effect, 10 complete control)
[11] = flood test, listed under Postemergence, Rate 250 g/ha, scale 0 to 10, 0 no effect, 10 complete control
[12] = Preemergence, Rate 31 g/ha, visual rating, scale 0 to 10 (0 no effect, 10 complete control)
[13] = Rate 31 g/ha, Postemergence, scale 0 to 10

Compound: Cc1ccccc1-n1c(=O)on(C(=O)N(c2ccc(F)cc2F)C(C)C)c1=O [Compound 25]
- Wild oats plant response rating (wild oat; [1]): 0
- Wild oats plant response rating (wild oat; [2]): 1
- Plant response rating, Wild oats (wild oat; [3]): 2
- Plant response rating, Wild oats (wild oat; [4]): 6
- Wild oats plant response rating (wild oat; [5]): 7
- Wild oats plant response rating (wild oat; [6]): 0
- B. signalgrass plant response rating (surinam grass; [1]): 0
- B. signalgrass plant response rating (surinam grass; [2]): 0
- Plant response rating, B. signalgrass (surinam grass; [7]): 0
- Plant response rating, B. signalgrass (surinam grass; [3]): 0
- Plant response rating, B. signalgrass (surinam grass; [4]): 7
- B. signalgrass plant response rating (surinam grass; [5]): 7
- B. signalgrass plant response rating (surinam grass; [6]): 0
- B. signalgrass plant response rating (surinam grass; [8]): 2
- Ducksalad plant response rating (duck salad; [1]): 0
- Ducksalad plant response rating (duck salad; [9]): 0
- Ducksalad plant response rating (duck salad; [10]): 0
- Ducksalad plant response rating (duck salad; [11]): 0
- Nutsedge plant response rating (purple nutsedge; [1]): 0
- Nutsedge plant response rating (purple nutsedge; [2]): 0
- Plant response rating, Nutsedge (purple nutsedge; [7]): 0
- Plant response rating, Nutsedge (purple nutsedge; [3]): 0
- Plant response rating, Nutsedge (purple nutsedge; [4]): 0
- Nutsedge plant response rating (purple nutsedge; [5]): 0
- Nutsedge plant response rating (purple nutsedge; [6]): 0
- S. Flatsedge plant response rating (smallflower flatsedge; [1]): 0
- S. Flatsedge plant response rating (smallflower flatsedge; [9]): 0
- S. Flatsedge plant response rating (smallflower flatsedge; [11]): 0
- Soybean plant response rating (soybean; [1]): 2
- Soybean plant response rating (soybean; [2]): 3
- Plant response rating, Soybean (soybean; [7]): 0
- Plant response rating, Soybean (soybean; [3]): 0
- Plant response rating, Soybean (soybean; [4]): 0
- Soybean plant response rating (soybean; [5]): 0
- Soybean plant response rating (soybean; [6]): 3
- Sugarbeets plant response rating (sugar beet; [1]): 0
- Sugarbeets plant response rating (sugar beet; [2]): 0
- Plant response rating, Sugarbeets (sugar beet; [7]): 0
- Plant response rating, Sugarbeets (sugar beet; [3]): 0
- Plant response rating, Sugarbeets (sugar beet; [4]): 0
- Sugarbeets plant response rating (sugar beet; [5]): 2
- Sugarbeets plant response rating (sugar beet; [6]): 0
- Rape plant response rating (rape; [1]): 0
- Rape plant response rating (rape; [2]): 0
- Plant response rating, Rape (rape; [7]): 0
- Plant response rating, Rape (rape; [3]): 0
- Plant response rating, Rape (rape; [4]): 0
- Rape plant response rating (rape; [5]): 0
- Rape plant response rating (rape; [6]): 0
- Rape plant response rating (rape; [8]): 0
- Bedstraw plant response rating (bedstraw; [1]): 4
- Bedstraw plant response rating (bedstraw; [2]): 7
- Plant response rating, Bedstraw (bedstraw; [7]): 0
- Plant response rating, Bedstraw (bedstraw; [3]): 0
- Plant response rating, Bedstraw (bedstraw; [4]): 0
- Bedstraw plant response rating (bedstraw; [5]): 3
- Bedstraw plant response rating (bedstraw; [6]): 4
- Bedstraw plant response rating (bedstraw; [8]): 7
- Giant foxtail plant response rating (giant foxtail; [1]): 3
- Giant foxtail plant response rating (giant foxtail; [2]): 8
- Plant response rating, Giant foxtail (giant foxtail; [7]): 5
- Plant response rating, Giant foxtail (giant foxtail; [3]): 7
- Plant response rating, Giant foxtail (giant foxtail; [4]): 10
- Giant foxtail plant response rating (giant foxtail; [5]): 10
- Giant foxtail plant response rating (giant foxtail; [6]): 5
- Giant foxtail plant response rating (giant foxtail; [8]): 8
- Redroot pigweed plant response rating (pigweed; [1]): 0
- Redroot pigweed plant response rating (pigweed; [2]): 0
- Plant response rating, Redroot pigweed (pigweed; [7]): 0
- Plant response rating, Redroot pigweed (pigweed; [3]): 0
- Plant response rating, Redroot pigweed (pigweed; [4]): 8
- Redroot pigweed plant response rating (pigweed; [5]): 8
- Redroot pigweed plant response rating (pigweed; [6]): 0
- Redroot pigweed plant response rating (pigweed; [8]): 4
- Rice plant response rating (rice; [1]): 0
- Rice plant response rating (rice; [9]): 0
- Rice plant response rating (rice; [10]): 3
- Rice plant response rating (rice; [11]): 0
- Wheat plant response rating (wheat; [1]): 0
- Wheat plant response rating (wheat; [2]): 0
- Plant response rating, Wheat (wheat; [7]): 0
- Plant response rating, Wheat (wheat; [3]): 0
- Plant response rating, Wheat (wheat; [4]): 0
- Wheat plant response rating (wheat; [5]): 0
- Wheat plant response rating (wheat; [6]): 0
- Cocklebur plant response rating (cocklebur; [1]): 0
- Cocklebur plant response rating (cocklebur; [2]): 2
- Plant response rating, Cocklebur (cocklebur; [7]): 0
- Plant response rating, Cocklebur (cocklebur; [3]): 0
- Plant response rating, Cocklebur (cocklebur; [4]): 0
- Cocklebur plant response rating (cocklebur; [5]): 0
- Cocklebur plant response rating (cocklebur; [6]): 2
- Cocklebur plant response rating (cocklebur; [8]): 5
- Velvetleaf plant response rating (velvetleaf; [1]): 0
- Velvetleaf plant response rating (velvetleaf; [2]): 0
- Plant response rating, Velvetleaf (velvetleaf; [7]): 0
- Plant response rating, Velvetleaf (velvetleaf; [3]): 0
- Plant response rating, Velvetleaf (velvetleaf; [4]): 0
- Velvetleaf plant response rating (velvetleaf; [5]): 0
- Velvetleaf plant response rating (velvetleaf; [6]): 0
- Corn plant response rating (corn; [1]): 0
- Corn plant response rating (corn; [2]): 0
- Plant response rating, Corn (corn; [7]): 0
- Plant response rating, Corn (corn; [3]): 0
- Plant response rating, Corn (corn; [4]): 0
- Corn plant response rating (corn; [5]): 0
- Corn plant response rating (corn; [6]): 0
- Corn plant response rating (corn; [8]): 0

Compound: Cc1cccc(C)c1-n1c(=O)on(C(=O)N(c2ccc(F)cc2F)C(C)C)c1=O [Compound 28]
- Wild oats plant response rating (wild oat; [1]): 0
- Wild oats plant response rating (wild oat; [2]): 0
- Wild oats plant response rating (wild oat; [12]): 0
- Plant response rating, Wild oats (wild oat; [3]): 0
- Plant response rating, Wild oats (wild oat; [4]): 3
- Wild oats plant response rating (wild oat; [6]): 0
- B. signalgrass plant response rating (surinam grass; [1]): 0
- B. signalgrass plant response rating (surinam grass; [2]): 0
- B. signalgrass plant response rating (surinam grass; [12]): 0
- Plant response rating, B. signalgrass (surinam grass; [7]): 0
- Plant response rating, B. signalgrass (surinam grass; [3]): 0
- Plant response rating, B. signalgrass (surinam grass; [4]): 0
- B. signalgrass plant response rating (surinam grass; [13]): 0
- B. signalgrass plant response rating (surinam grass; [6]): 0
- Ducksalad plant response rating (duck salad; [1]): 0
- Ducksalad plant response rating (duck salad; [9]): 0
- Ducksalad plant response rating (duck salad; [10]): 4
- Ducksalad plant response rating (duck salad; [11]): 0
- Nutsedge plant response rating (purple nutsedge; [1]): 0
- Nutsedge plant response rating (purple nutsedge; [2]): 0
- Nutsedge plant response rating (purple nutsedge; [12]): 0
- Plant response rating, Nutsedge (purple nutsedge; [7]): 0
- Plant response rating, Nutsedge (purple nutsedge; [3]): 0
- Plant response rating, Nutsedge (purple nutsedge; [4]): 0
- Nutsedge plant response rating (purple nutsedge; [13]): 0
- Nutsedge plant response rating (purple nutsedge; [6]): 0
- S. Flatsedge plant response rating (smallflower flatsedge; [1]): 0
- S. Flatsedge plant response rating (smallflower flatsedge; [9]): 0
- S. Flatsedge plant response rating (smallflower flatsedge; [11]): 0
- Soybean plant response rating (soybean; [1]): 3
- Soybean plant response rating (soybean; [2]): 3
- Soybean plant response rating (soybean; [12]): 0
- Plant response rating, Soybean (soybean; [7]): 0
- Plant response rating, Soybean (soybean; [3]): 0
- Plant response rating, Soybean (soybean; [4]): 0
- Soybean plant response rating (soybean; [6]): 3
- Sugarbeets plant response rating (sugar beet; [1]): 1
- Sugarbeets plant response rating (sugar beet; [2]): 1
- Sugarbeets plant response rating (sugar beet; [12]): 0
- Plant response rating, Sugarbeets (sugar beet; [7]): 0
- Plant response rating, Sugarbeets (sugar beet; [3]): 0
- Plant response rating, Sugarbeets (sugar beet; [4]): 0
- Sugarbeets plant response rating (sugar beet; [6]): 1
- Rape plant response rating (rape; [1]): 0
- Rape plant response rating (rape; [2]): 0
- Rape plant response rating (rape; [12]): 0
- Plant response rating, Rape (rape; [7]): 0
- Plant response rating, Rape (rape; [3]): 0
- Plant response rating, Rape (rape; [4]): 0
- Rape plant response rating (rape; [13]): 0
- Rape plant response rating (rape; [6]): 0
- Bedstraw plant response rating (bedstraw; [1]): 3
- Bedstraw plant response rating (bedstraw; [2]): 8
- Bedstraw plant response rating (bedstraw; [12]): 0
- Plant response rating, Bedstraw (bedstraw; [7]): 0
- Plant response rating, Bedstraw (bedstraw; [3]): 0
- Plant response rating, Bedstraw (bedstraw; [4]): 1
- Bedstraw plant response rating (bedstraw; [13]): 3
- Giant foxtail plant response rating (giant foxtail; [1]): 1
- Giant foxtail plant response rating (giant foxtail; [2]): 4
- Giant foxtail plant response rating (giant foxtail; [12]): 0
- Plant response rating, Giant foxtail (giant foxtail; [7]): 2
- Plant response rating, Giant foxtail (giant foxtail; [3]): 5
- Plant response rating, Giant foxtail (giant foxtail; [4]): 7
- Giant foxtail plant response rating (giant foxtail; [13]): 1
- Giant foxtail plant response rating (giant foxtail; [6]): 2
- Redroot pigweed plant response rating (pigweed; [1]): 0
- Redroot pigweed plant response rating (pigweed; [2]): 2
- Redroot pigweed plant response rating (pigweed; [12]): 0
- Plant response rating, Redroot pigweed (pigweed; [7]): 0
- Plant response rating, Redroot pigweed (pigweed; [3]): 0
- Plant response rating, Redroot pigweed (pigweed; [4]): 1
- Redroot pigweed plant response rating (pigweed; [13]): 0
- Redroot pigweed plant response rating (pigweed; [6]): 1
- Rice plant response rating (rice; [1]): 0
- Rice plant response rating (rice; [9]): 0
- Rice plant response rating (rice; [10]): 3
- Rice plant response rating (rice; [11]): 2
- Wheat plant response rating (wheat; [1]): 0
- Wheat plant response rating (wheat; [2]): 0
- Wheat plant response rating (wheat; [12]): 0
- Plant response rating, Wheat (wheat; [7]): 0
- Plant response rating, Wheat (wheat; [3]): 0
- Plant response rating, Wheat (wheat; [4]): 0
- Wheat plant response rating (wheat; [6]): 0
- Cocklebur plant response rating (cocklebur; [1]): 0
- Cocklebur plant response rating (cocklebur; [2]): 3
- Cocklebur plant response rating (cocklebur; [12]): 0
- Plant response rating, Cocklebur (cocklebur; [3]): 0
- Plant response rating, Cocklebur (cocklebur; [4]): 0
- Cocklebur plant response rating (cocklebur; [13]): 0
- Cocklebur plant response rating (cocklebur; [6]): 0
- Velvetleaf plant response rating (velvetleaf; [1]): 0
- Velvetleaf plant response rating (velvetleaf; [2]): 0
- Velvetleaf plant response rating (velvetleaf; [12]): 0
- Plant response rating, Velvetleaf (velvetleaf; [7]): 0
- Plant response rating, Velvetleaf (velvetleaf; [3]): 0
- Plant response rating, Velvetleaf (velvetleaf; [4]): 0
- Velvetleaf plant response rating (velvetleaf; [6]): 0
- Corn plant response rating (corn; [1]): 0
- Corn plant response rating (corn; [2]): 0
- Corn plant response rating (corn; [12]): 0
- Plant response rating, Corn (corn; [7]): 0
- Plant response rating, Corn (corn; [3]): 0
- Plant response rating, Corn (corn; [4]): 0
- Corn plant response rating (corn; [13]): 0
- Corn plant response rating (corn; [6]): 0
